Measurements as given in the NIST ThermoML archive (doi:10.1016/j.jct.2009.04.015).
Where “and” joins values, the source holds several entries; their conditions need not be identical. Equal values may be shown once. ± gives the expanded uncertainty stated by the source.

Conditions: Crystal, Calculated from knudsen effusion weight loss

Structure (SMILES): Cc1ccc(O)cc1O [1,3-benzenediol, 4-methyl-]
- vapor or sublimation pressure (317.2 K): 0.000134 ± 7e-06 kPa and 0.000129 ± 7e-06 kPa and 0.000128 ± 6e-06 kPa
- vapor or sublimation pressure (319.22 K): 0.000175 ± 9e-06 kPa and 0.00017 ± 9e-06 kPa and 0.000166 ± 8e-06 kPa
- vapor or sublimation pressure (321.11 K): 0.00022 ± 1.1e-05 kPa and 0.000215 ± 1.1e-05 kPa and 0.000211 ± 1.1e-05 kPa
- vapor or sublimation pressure (323.21 K): 0.000266 ± 1.3e-05 kPa and 0.000262 ± 1.3e-05 kPa and 0.000282 ± 1.4e-05 kPa
- vapor or sublimation pressure (325.23 K): 0.000361 ± 1.8e-05 kPa and 0.000344 ± 1.7e-05 kPa and 0.000336 ± 1.7e-05 kPa
- vapor or sublimation pressure (327.13 K): 0.000451 ± 2.3e-05 kPa and 0.000438 ± 2.2e-05 kPa and 0.000432 ± 2.2e-05 kPa
- vapor or sublimation pressure (329.21 K): 0.000572 ± 2.9e-05 kPa and 0.000562 ± 2.8e-05 kPa and 0.000561 ± 2.8e-05 kPa
- vapor or sublimation pressure (331.21 K): 0.000742 ± 3.7e-05 kPa and 0.000724 ± 3.6e-05 kPa and 0.000719 ± 3.6e-05 kPa
- vapor or sublimation pressure (333.12 K): 0.000933 ± 4.7e-05 kPa and 0.000916 ± 4.6e-05 kPa and 0.000886 ± 4.4e-05 kPa

Structure (SMILES): Cc1c(O)cccc1O [1,3-dihydroxy-2-methylbenzene]
- vapor or sublimation pressure (309.22 K): 0.000109 ± 6e-06 kPa and 0.000107 ± 5e-06 kPa and 0.000103 ± 5e-06 kPa
- vapor or sublimation pressure (311.2 K): 0.000141 ± 7e-06 kPa and 0.000136 ± 7e-06 kPa and 0.000132 ± 7e-06 kPa
- vapor or sublimation pressure (313.12 K): 0.000176 ± 9e-06 kPa and 0.000172 ± 9e-06 kPa and 0.000171 ± 9e-06 kPa
- vapor or sublimation pressure (315.21 K): 0.000224 ± 1.1e-05 kPa and 0.000217 ± 1.1e-05 kPa and 0.000227 ± 1.1e-05 kPa
- vapor or sublimation pressure (317.12 K): 0.000287 ± 1.4e-05 kPa and 0.00028 ± 1.4e-05 kPa and 0.000276 ± 1.4e-05 kPa
- vapor or sublimation pressure (319.2 K): 0.000358 ± 1.8e-05 kPa and 0.00035 ± 1.8e-05 kPa and 0.000341 ± 1.7e-05 kPa
- vapor or sublimation pressure (321.19 K): 0.000456 ± 2.3e-05 kPa and 0.000446 ± 2.2e-05 kPa and 0.000437 ± 2.2e-05 kPa
- vapor or sublimation pressure (323.12 K): 0.000578 ± 2.9e-05 kPa and 0.000559 ± 2.8e-05 kPa and 0.000553 ± 2.8e-05 kPa
- vapor or sublimation pressure (325.21 K): 0.000724 ± 3.6e-05 kPa and 0.000694 ± 3.5e-05 kPa and 0.000673 ± 3.4e-05 kPa
- vapor or sublimation pressure (327.17 K): 0.000896 ± 4.5e-05 kPa and 0.000883 ± 4.4e-05 kPa and 0.000851 ± 4.3e-05 kPa
- vapor or sublimation pressure (329.11 K): 0.001115 ± 0.00011 kPa and 0.001099 ± 0.00011 kPa and 0.001081 ± 0.00011 kPa

Structure (SMILES): Cc1cc(O)ccc1O [1,4-benzenediol, 2-methyl-]
- vapor or sublimation pressure (325.21 K): 0.000147 ± 7e-06 kPa and 0.000144 ± 7e-06 kPa and 0.000138 ± 7e-06 kPa
- vapor or sublimation pressure (327.15 K): 0.000189 ± 1e-05 kPa and 0.000182 ± 9e-06 kPa and 0.000173 ± 9e-06 kPa
- vapor or sublimation pressure (329.11 K): 0.000239 ± 1.2e-05 kPa and 0.000229 ± 1.2e-05 kPa and 0.000226 ± 1.1e-05 kPa
- vapor or sublimation pressure (331.19 K): 0.000292 ± 1.5e-05 kPa and 0.000277 ± 1.4e-05 kPa and 0.000298 ± 1.5e-05 kPa
- vapor or sublimation pressure (333.14 K): 0.000375 ± 1.9e-05 kPa and 0.000361 ± 1.8e-05 kPa and 0.000348 ± 1.7e-05 kPa
- vapor or sublimation pressure (335.11 K): 0.000481 ± 2.4e-05 kPa and 0.000462 ± 2.3e-05 kPa and 0.000448 ± 2.2e-05 kPa
- vapor or sublimation pressure (337.2 K): 0.00061 ± 3.1e-05 kPa and 0.000607 ± 3e-05 kPa and 0.000569 ± 2.9e-05 kPa
- vapor or sublimation pressure (339.14 K): 0.000751 ± 3.8e-05 kPa and 0.000731 ± 3.7e-05 kPa and 0.000704 ± 3.5e-05 kPa
- vapor or sublimation pressure (341.12 K): 0.000957 ± 4.8e-05 kPa and 0.000916 ± 4.6e-05 kPa and 0.00089 ± 4.5e-05 kPa

Structure (SMILES): Cc1cc(O)cc(O)c1 [5-methyl-1,3-benzenediol]
- vapor or sublimation pressure (322.2 K): 0.000157 ± 8e-06 kPa and 0.000153 ± 8e-06 kPa
- vapor or sublimation pressure (324.16 K): 0.000199 ± 1e-05 kPa and 0.000196 ± 1e-05 kPa and 0.000193 ± 1e-05 kPa
- vapor or sublimation pressure (326.1 K): 0.000246 ± 1.2e-05 kPa and 0.000245 ± 1.2e-05 kPa
- vapor or sublimation pressure (328.2 K): 0.000304 ± 1.5e-05 kPa and 0.000311 ± 1.6e-05 kPa and 0.000303 ± 1.5e-05 kPa
- vapor or sublimation pressure (330.14 K): 0.000394 ± 2e-05 kPa and 0.000383 ± 1.9e-05 kPa and 0.000378 ± 1.9e-05 kPa
- vapor or sublimation pressure (332.1 K): 0.000499 ± 2.5e-05 kPa and 0.000485 ± 2.4e-05 kPa and 0.000482 ± 2.4e-05 kPa
- vapor or sublimation pressure (334.19 K): 0.000607 ± 3e-05 kPa and 0.000596 ± 3e-05 kPa and 0.000591 ± 3e-05 kPa
- vapor or sublimation pressure (336.13 K): 0.000766 ± 3.8e-05 kPa and 0.000754 ± 3.8e-05 kPa and 0.000734 ± 3.7e-05 kPa
- vapor or sublimation pressure (338.1 K): 0.000974 ± 4.9e-05 kPa and 0.000935 ± 4.7e-05 kPa and 0.000932 ± 4.7e-05 kPa
